Patent publication US20110224208A1, “NOVEL INHIBITORS OF FLAVIVIRUS REPLICATION” (KATHOLIEKE UNIVERSITEIT LEUVEN, K.U. LEUVEN R&D, priority 2008, published 2011)
Converted amounts (≈) assume the structure as drawn.

Test system: HCV replicon I389luc-ubi-neo/NS3-3'/5.1
Experiment: Anti-HCV replicon assay (luciferase activity) in Huh-5-2 cells
Assay type: cell-based, Hepatitis C virus
Conditions: Hepatitis C virus, Huh-5-2, 72 h, concentration required to inhibit luciferase activity in the replicon system by 50%
Protocol: Cells were seeded at a density of 7000 cells per well in 96 well View Plate™ (Packard) in medium containing the same components as described above, except for G418. Cells were allowed to adhere and proliferate for 24 hr. At that time, culture medium was removed and serial dilutions of the test compounds were added in culture medium lacking G418. Interferon alfa 2a (500 IU) was included as a positive control. Plates were further incubated at 37° C. and 5% CO2 for 72 hours. Replication of the HCV replicon in Huh-5 cells results in luciferase activity in the cells. Luciferase activity is measured by adding 50 μl of 1×Glo-lysis buffer (Promega) for 15 minutes followed by 50 ul of the Steady-Glo Luciferase assay reagent (Promega). Luciferase activity is measured with a luminometer and the signal in each individual well is expressed as a percentage of the untreated cultures. […] Instead the density of the culture is measured by means of the MTS method (Promega).

SMILES	IC50 [µg/mL]
COCCN1C(=O)c2ccccc2C(C(=O)Nc2cccc(OC)c2)C1c1ccnn1C (stereo not drawn) [C105, 2-(2-methoxyethyl)-N-(3-methoxyphenyl)-3-(1-methyl-1H-pyrazol-5-yl)-1-oxo-1,2,3,4-tetrahydroisoquinoline-4-carboxamide]	50.5 (≈ 116 µM)
COCCn1c(-c2ccco2)c(C(=O)Nc2cccc(OC)c2)c2ccccc2c1=O [C38, 3-(furan-2-yl)-2-(2-methoxyethyl)-N-(3-methoxyphenyl)-1-oxo-1,2-dihydroisoquinoline-4-carboxamide]	41.4 (≈ 98.9 µM)
COCCN1C(=O)c2ccccc2C(C(=O)Nc2nc(C)co2)C1c1cccs1 (stereo not drawn) [C154, 2-(2-methoxyethyl)-N-(4-methyloxazol-2-yl)-1-oxo-3-(thiophen-2-yl)-1,2,3,4-tetrahydroisoquinoline-4-carboxamide]	3.68 (≈ 8.94 µM)
COCCN1C(=O)c2cc(I)ccc2C(C(=O)Nc2cccc(OC)c2)C1c1cccs1 (stereo not drawn) [C56, 7-Iodo-2-(2-methoxyethyl)-N-(3-methoxyphenyl)-1-oxo-3-(thiophen-2-yl)-1,2,3,4-tetrahydroisoquinoline-4-carboxamide]	0.98 (≈ 1.74 µM)
COCCN1C(=O)c2ccccc2C(C(=O)Nc2ccc(Cl)cc2N)C1c1cccs1 (stereo not drawn) [C144, N-(2-amino-4-chlorophenyl)-2-(2-methoxyethyl)-1-oxo-3-(thiophen-2-yl)-1,2,3,4-tetrahydroisoquinoline-4-carboxamide]	5.16 (≈ 11.3 µM)
COCCN1C(=O)c2ccccc2C(C(=O)Nc2ccc(F)c(Cl)c2)C1c1cccs1 (stereo not drawn) [C94, N-(3-chloro-4-fluorophenyl)-2-(2-methoxyethyl)-1-oxo-3-(thiophen-2-yl)-1,2,3,4-tetrahydroisoquinoline-4-carboxamide]	0.25 (≈ 0.545 µM)
CCN1CCC[C@H]1CN1C(=O)c2ccccc2C(C(=O)Nc2cccc(OC)c2)C1c1cccs1 (stereo partly drawn) [C74, 2-(((S)-1-ethylpyrrolidin-2-yl)methyl)-N-(3-methoxyphenyl)-1-oxo-3-(thiophen-2-yl)-1,2,3,4-tetrahydroisoquinoline-4-carboxamide]	36 (≈ 73.4 µM)
CCCCN1C(=O)c2ccccc2C(C(=O)Nc2cccc(OC)c2)C1c1cccs1 (stereo not drawn) [C16, 2-Butyl-N-(3-methoxyphenyl)-1-oxo-3-(thiophen-2-yl)-1,2,3,4-tetrahydroisoquinoline-4-carboxamide]	1.1 (≈ 2.53 µM)
COCCN1C(=O)c2ccccc2C(C(=O)Nc2ccc3scnc3c2)C1c1cccs1 (stereo not drawn) [C164, N-(benzo[d]thiazol-5-yl)-2-(2-methoxyethyl)-1-oxo-3-(thiophen-2-yl)-1,2,3,4-tetrahydroisoquinoline-4-carboxamide]	0.13 (≈ 0.28 µM)
COc1cccc(NC(=O)C2c3ccccc3C(=O)N(Cc3ccco3)C2c2cccs2)c1 (stereo not drawn) [C4, 2-(Furan-2-ylmethyl)-N-(3-methoxyphenyl)-1-oxo-3-(thiophen-2-yl)-1,2,3,4-tetrahydroisoquinoline-4-carboxamide]	41.5 (≈ 90.6 µM)
CCC1C(C(=O)Nc2cccc(OC)c2)c2ccccc2C(=O)N1CCOC (stereo not drawn) [C58, 3-Ethyl-2-(2-methoxyethyl)-N-(3-methoxyphenyl)-1-oxo-1,2,3,4-tetrahydroisoquinoline-4-carboxamide]	1.81 (≈ 4.73 µM)
COCCN1C(=O)c2c(F)ccc(F)c2C(C(=O)Nc2cccc(OC)c2)C1c1cccs1 (stereo not drawn) [C91, 5,8-difluoro-2-(2-methoxyethyl)-N-(3-methoxyphenyl)-1-oxo-3-(thiophen-2-yl)-1,2,3,4-tetrahydroisoquinoline-4-carboxamide]	0.32 (≈ 0.677 µM)
COCCN1C(=O)c2ccccc2C(C(=O)Nc2nc(-c3ccccc3)ns2)C1c1cccs1 (stereo not drawn) [C194, 2-(2-methoxyethyl)-1-oxo-N-(3-phenyl-1,2,4-thiadiazol-5-yl)-3-(thiophen-2-yl)-1,2,3,4-tetrahydroisoquinoline-4-carboxamide]	0.019 (≈ 0.0387 µM)
COCCN1C(=O)c2ccccc2C(C(=O)Nc2ccc(Oc3ccccc3)nc2)C1c1cccs1 (stereo not drawn) [C158, 2-(2-methoxyethyl)-1-oxo-N-(6-phenoxypyridin-3-yl)-3-(thiophen-2-yl)-1,2,3,4-tetrahydroisoquinoline-4-carboxamide]	0.04 (≈ 0.0801 µM)
COCCN1C(=O)c2ccccc2C(C(=O)Nc2cccc(OC)c2)C1C (stereo not drawn) [C69, 2-(2-methoxyethyl)-N-(3-methoxyphenyl)-3-methyl-1-oxo-1,2,3,4-tetrahydroisoquinoline-4-carboxamide]	8.7 (≈ 23.6 µM)
COCCN1C(=O)c2ccccc2C(C(=O)Nc2cccc(OC)c2)C1C#N (stereo not drawn) [C143, 3-cyano-2-(2-methoxyethyl)-N-(3-methoxyphenyl)-1-oxo-1,2,3,4-tetrahydroisoquinoline-4-carboxamide]	24.3 (≈ 64 µM)
COCCN1C(=O)c2cc(OC)c(OC)cc2C(C(=O)Nc2cccc(OC)c2)C1c1cccs1 (stereo not drawn) [C75, 6,7-dimethoxy-2-(2-methoxyethyl)-N-(3-methoxyphenyl)-1-oxo-3-(thiophen-2-yl)-1,2,3,4-tetrahydroisoquinoline-4-carboxamide]	43.1 (≈ 86.9 µM)

SMILES	IC50 [µg/mL]
COCCN1C(=O)c2cc(C(F)(F)F)ccc2C(C(=O)Nc2cccc(OC)c2)C1c1cccs1 (stereo not drawn) [C92, 2-(2-methoxyethyl)-N-(3-methoxyphenyl)-1-oxo-3-(thiophen-2-yl)-7-(trifluoromethyl)-1,2,3,4-tetrahydroisoquinoline-4-carboxamide]	7.04 (≈ 14 µM)
COc1cccc(NC(=O)C2c3ccccc3C(=O)N(CCSC)C2c2cccs2)c1 (stereo not drawn) [C63, N-(3-methoxyphenyl)-2-(2-(methylthio)ethyl)-1-oxo-3-(thiophen-2-yl)-1,2,3,4-tetrahydroisoquinoline-4-carboxamide]	3.21 (≈ 7.09 µM)
COCCN1C(=O)c2cc(Cl)ccc2C(C(=O)Nc2cccc(OC)c2)C1c1cccs1 (stereo not drawn) [C43, 7-Chloro-2-(2-methoxyethyl)-N-(3-methoxyphenyl)-1-oxo-3-(thiophen-2-yl)-1,2,3,4-tetrahydroisoquinoline-4-carboxamide]	0.3 (≈ 0.637 µM)
COCCN1C(=O)c2ccccc2C(C(=O)Nc2ccncn2)C1c1cccs1 (stereo not drawn) [C162, 2-(2-methoxyethyl)-1-oxo-N-(pyrimidin-4-yl)-3-(thiophen-2-yl)-1,2,3,4-tetrahydroisoquinoline-4-carboxamide]	3.56 (≈ 8.72 µM)
COCCN1C(=O)c2ccccc2C(C(=O)Nc2cccc(OC)c2)C1c1cc(C)no1 (stereo not drawn) [C104, 2-(2-methoxyethyl)-N-(3-methoxyphenyl)-3-(3-methylisoxazol-5-yl)-1-oxo-1,2,3,4-tetrahydroisoquinoline-4-carboxamide]	10.1 (≈ 23.1 µM)
COCCN1C(=O)c2ccccc2C(C(=O)Nc2nc(C)c(C)s2)C1c1cccs1 (stereo not drawn) [C156, N-(4,5-dimethylthiazol-2-yl)-2-(2-methoxyethyl)-1-oxo-3-(thiophen-2-yl)-1,2,3,4-tetrahydroisoquinoline-4-carboxamide]	37.4 (≈ 84.7 µM)
COCCN1C(=O)c2ccccc2C(C(=O)Nc2cccc(C)c2)C1c1cccs1 (stereo not drawn) [C85, 2-(2-methoxyethyl)-1-oxo-3-(thiophen-2-yl)-N-m-tolyl-1,2,3,4-tetrahydroisoquinoline-4-carboxamide]	0.18 (≈ 0.428 µM)
COCCN1C(=O)c2ccccc2C(C(=O)Nc2ccc(C(=O)OC)c(OC)c2)C1c1cccs1 (stereo not drawn) [C114, methyl 2-methoxy-4-(2-(2-methoxyethyl)-1-oxo-3-(thiophen-2-yl)-1,2,3,4-tetrahydroisoquinoline-4-carboxamido)benzoate]	0.47 (≈ 0.95 µM)
COCCN1C(=O)c2ccccc2C(C(=O)Nc2ccc3c(c2)CCN3C)C1c1cccs1 (stereo not drawn) [C176, 2-(2-methoxyethyl)-N-(1-methylindolin-5-yl)-1-oxo-3-(thiophen-2-yl)-1,2,3,4-tetrahydroisoquinoline-4-carboxamide]	0.48 (≈ 1.04 µM)
COCCN1C(=O)c2ccccc2C(C(=O)Nc2ccccc2-c2ccccc2)C1c1cccs1 (stereo not drawn) [C84, N-(biphenyl-2-yl)-2-(2-methoxyethyl)-1-oxo-3-(thiophen-2-yl)-1,2,3,4-tetrahydroisoquinoline-4-carboxamide]	12 (≈ 24.9 µM)
COCCN1C(=O)c2ccccc2C(C(=O)Nc2ccc(C(C)C)cc2)C1c1cccs1 (stereo not drawn) [C165, N-(4-isopropylphenyl)-2-(2-methoxyethyl)-1-oxo-3-(thiophen-2-yl)-1,2,3,4-tetrahydroisoquinoline-4-carboxamide]	0.4 (≈ 0.892 µM)
COc1cccc(NC(=O)C2c3ccccc3C(=O)N(CCN(C)C)C2c2cccs2)c1 (stereo not drawn) [C15, 2-(2-(Dimethylamino)ethyl)-N-(3-methoxyphenyl)-1-oxo-3-(thiophen-2-yl)-1,2,3,4-tetrahydroisoquinoline-4-carboxamide]	11.8 (≈ 26.3 µM)
COCCN1C(=O)c2ccccc2C(C(=O)Nc2cccc(OC)c2)C1c1ccccc1 (stereo not drawn) [C28, 2-(2-Methoxyethyl)-N-(3-methoxyphenyl)-1-oxo-3-phenyl-1,2,3,4-tetrahydroisoquinoline-4-carboxamide]	38.8 (≈ 90 µM)
COCCN1C(=O)c2ccccc2C(C(=O)Nc2ccc3c(c2)S(=O)(=O)C=C3)C1c1cccs1 (stereo not drawn) [C198, N-(1,1-dioxobenzo[b]thiophen-6-yl)-2-(2-methoxyethyl)-1-oxo-3-(thiophen-2-yl)-1,2,3,4-tetrahydroisoquinoline-4-carboxamide]	4 (≈ 8.09 µM)
COCCN1C(=O)c2cc([N+](=O)[O-])ccc2C(C(=O)Nc2cccc(OC)c2)C1c1cccs1 (stereo not drawn) [C3, 2-(2-methoxyethyl)-N-(3-methoxyphenyl)-7-nitro-1-oxo-3-(thiophen-2-yl)-1,2,3,4-tetrahydroisoquinoline-4-carboxamide]	40.9 (≈ 84.9 µM)
COCCN1C(=O)c2ccccc2C(C(=O)NCCOc2ccccc2)C1c1cccs1 (stereo not drawn) [C34, 2-(2-Methoxyethyl)-1-oxo-N-(2-phenoxyethyl)-3-(thiophen-2-yl)-1,2,3,4-tetrahydroisoquinoline-4-carboxamide]	16.5 (≈ 36.7 µM)
